In patent publication US9340548B2, “Substituted pyrazolo[3,4-a]carbazoles as hepatitis C inhibitors” (priority 2011, dated 2016):

Tested on: HCVpp (HCV E1/E2, isolate Con1) entry into Hep3B2.1-7 cells
Test: microbe, parasite or virus in culture
Assay type: cell-based
Conditions: Hepatitis C virus, 72 h, read-out: EC50 (nM) Example 46

| Compound | EC50 |
| --- | --- |
| CC1(C)Cc2c[nH]nc2-c2[nH]c3ccc(C(=O)N[C@H]4CCOC4)cc3c21 [Compound 1006] | 112 nM |
| CC1(C)Cc2c[nH]nc2-c2[nH]c3ccc(C(N)=O)cc3c21 [Compound 1011] | 72 nM |
| CC1(C)Cc2c[nH]nc2-c2[nH]c3ccc(C(=O)NC4CCN(C(=O)c5ccccn5)C4)cc3c21 (centres unmarked) [Compound 1015] | 12 nM |
| CC(C)NC(=O)N1CCC(NC(=O)c2ccc3[nH]c4c(c3c2)C(C)(C)Cc2c[nH]nc2-4)C1 (centres unmarked) [Compound 1118] | 19 nM |
| CC1(C)Cc2c[nH]nc2-c2[nH]c3ccc(C(=O)Nc4cccnc4)cc3c21 [Compound 1126] | 65 nM |
| CC1(C)Cn2cnnc2-c2[nH]c3ccc(C(=O)NCc4ccccn4)cc3c21 [Compound 2001] | 1400 nM |
| Cn1cc2c(n1)-c1[nH]c3ccc(C(=O)NCc4ccccn4)cc3c1C(C)(C)C2 [Compound 2004] | 109 nM |
| CC1(C)Cn2ccnc2-c2[nH]c3ccc(C(=O)NC4CCOCC4)cc3c21 [Compound 2012] | 230 nM |
| CC1(C)Cc2sc(N)nc2-c2[nH]c3ccc(C(=O)NC4CCS(=O)(=O)C4)cc3c21 (centres unmarked) [Compound 2014] | 280 nM |
| Cc1nc2c(s1)CC(C)(C)c1c-2[nH]c2ccc(C(=O)NC3CCS(=O)(=O)C3)cc12 (centres unmarked) [Compound 2018] | 320 nM |
| COC(=O)c1ccc2[nH]c3c(c2c1)C(C)(C)Cc1c[nH]nc1-3 [Compound 2020] | 97 nM |
| CC1(C)Cc2cnc(N)nc2-c2[nH]c3ccc(C(=O)NCc4ccccn4)cc3c21 [Compound 2022] | 1350 nM |
| Cc1ncc2c(n1)-c1[nH]c3ccc(C(=O)NC4CCS(=O)(=O)C4)cc3c1C(C)(C)C2 (centres unmarked) [Compound 2028] | 885 nM |
| CC(C)S(=O)(=O)CCNC(=O)c1ccc2[nH]c3c(c2c1)C1(CCC1)Cc1c[nH]nc1-3 [Compound 3011] | 2.8 nM |
| O=C(NC1CCN(C(=O)c2ccccn2)C1)c1ccc2[nH]c3c(c2c1)C1(CCC1)Cc1c[nH]nc1-3 (centres unmarked) [Compound 3018] | 6.7 nM |
| CC1CC2(Cc3c[nH]nc3-c3[nH]c4ccc(C(=O)NCc5ccccn5)cc4c32)C1 (centres unmarked) [Compound 4004] | 54 nM |
| CC1(C)c2c[nH]nc2-c2[nH]c3ccc(C(=O)NC4CCN(C(=O)c5ncn[nH]5)C4)cc3c21 (centres unmarked) [Compound 5002] | 59 nM |
